Reference: ChEMBL document CHEMBL5058564, “EUbOPEN Chemogenomics Library 2 (Incucyte)” (2022)

Columns and labels:
Type in all cases: toxicity, cell-based
HEK-293T = test: Incucyte cell viability with HEK293T; conditions: human, 10 µM, compound concentration 10 uM
Fibroblast = test: Incucyte cell viability with human fibroblast; conditions: 10 µM, compound concentration 10 uM
U2OS = test: Incucyte cell viability with U2OS; conditions: human, 10 µM, compound concentration 10 uM
[1] = 0 h, replicate number 2, timepoint 0 hours
[2] = 6 h, replicate number 1, timepoint 6 hours
[3] = 6 h, replicate number 2, timepoint 6 hours
[4] = 12 h, replicate number 1, timepoint 12 hours
[5] = 12 h, replicate number 2, timepoint 12 hours
[6] = 18 h, replicate number 1, timepoint 18 hours
[7] = 18 h, replicate number 2, timepoint 18 hours
[8] = 24 h, replicate number 1, timepoint 24 hours
[9] = 24 h, replicate number 2, timepoint 24 hours
[10] = 0 h, replicate number 1, timepoint 0 hours
Further: unitless GR value; below 1 slowed growth and below 0 cell loss.

| Compound | Growth Rate (HEK-293T; [1]) | Growth Rate (HEK-293T; [2]) | Growth Rate (HEK-293T; [3]) | Growth Rate (HEK-293T; [4]) | Growth Rate (HEK-293T; [5]) | Growth Rate (HEK-293T; [6]) | Growth Rate (HEK-293T; [7]) | Growth Rate (HEK-293T; [8]) | Growth Rate (HEK-293T; [9]) | Growth Rate (Fibroblast; [2]) | Growth Rate (Fibroblast; [3]) | Growth Rate (Fibroblast; [4]) | Growth Rate (Fibroblast; [5]) | Growth Rate (Fibroblast; [6]) | Growth Rate (Fibroblast; [7]) | Growth Rate (Fibroblast; [8]) | Growth Rate (Fibroblast; [9]) | Growth Rate (U2OS; [1]) | Growth Rate (U2OS; [9]) | Growth Rate (Fibroblast; [10]) | also measured |
| --- | --- | --- | --- | --- | --- | --- | --- | --- | --- | --- | --- | --- | --- | --- | --- | --- | --- | --- | --- | --- | --- |
| COc1ccc(NC(=O)c2ccc(-c3ccc(-c4noc(C)n4)cc3C)cc2)cc1OCCN(C)C.Cl | -0.89 | -0.88 | -0.73 | -0.65 | -0.38 | -0.53 | -0.31 | -0.45 | -0.35 | -0.36 | -0.28 | -0.41 | -0.33 | -0.47 | -0.48 | -0.57 | -0.52 | -1 | 0.14 |  | Growth Rate (U2OS; [10]): -0.87; Growth Rate (U2OS; [2]): -0.71; Growth Rate (U2OS; [4]): -0.36; Growth Rate (U2OS; [5]): 0.51; Growth Rate (U2OS; [6]): -0.17; Growth Rate (U2OS; [7]): 0.28; Growth Rate (U2OS; [8]): -0.18 |
| O=C(Nc1cc(C(F)(F)F)ccc1N1CCN(Cc2ccccn2)CC1)c1ccc(-c2ccncc2)o1 | 0.73 | 0.44 | 0.41 | -0.16 | -0.05 | -0.1 | -0.19 | -0.03 | -0.11 | 0.13 | -0.21 | -0.19 | 0.06 | 0.1 | 0.16 | 0.21 | 0.56 | -1 | 0.76 | 0.86 | Growth Rate (HEK-293T; [10]): 0.95; Growth Rate (U2OS; [10]): -0.79; Growth Rate (U2OS; [5]): 0.93; Growth Rate (U2OS; [7]): 0.83 |
| CCCCC1=NC2(CCCC2)C(=O)N1Cc1ccc(-c2ccccc2-c2nnn[nH]2)cc1 [IRBESARTAN] | 0.31 |  |  |  |  | 0.86 |  | 0.68 |  | -0.26 | 0.66 | -0.32 | 0.98 | 0.01 |  | 0.09 |  | -1 | 0.92 | 0.38 | Growth Rate (HEK-293T; [10]): 0.8; Growth Rate (Fibroblast; [1]): 0.58; Growth Rate (U2OS; [2]): 0.3; Growth Rate (U2OS; [3]): 0.94; Growth Rate (U2OS; [4]): 0.97; Growth Rate (U2OS; [6]): 0.72; Growth Rate (U2OS; [7]): 0.95; Growth Rate (U2OS; [8]): 0.87 |
| CC(C)OC(=O)N1CCC(Oc2ncnc3c2cnn3-c2ccc(S(C)(=O)=O)cc2F)CC1 |  | 0.81 |  | 0.82 |  | 0.98 |  |  |  | 0.15 |  | 0.04 | 0.61 | 0.38 | 0.58 | 0.47 | 0.69 | -1 | 0.97 | 0.77 | Growth Rate (Fibroblast; [1]): -0.13; Growth Rate (U2OS; [3]): 0.7 |
| OCc1cc(C(O)CNCCCCCCOCCCCc2ccccc2)ccc1O (configuration not stated) [SALMETEROL] |  | 0.2 | 0.28 | 0.7 | 0.57 | 0.75 | 0.72 | 0.7 | 0.71 |  |  |  | 0.59 |  | 0.72 |  |  |  |  | 0.1 | Growth Rate (Fibroblast; [1]): 0.63; Growth Rate (U2OS; [2]): 0.56; Growth Rate (U2OS; [4]): 0.56; Growth Rate (U2OS; [5]): 0.98; Growth Rate (U2OS; [6]): 0.81; Growth Rate (U2OS; [8]): 0.95 |
